Results: the supplement of paper PMC10307832

Legend:
Test in all cases: relative viability (nuclei count vs DMSO), 5 days (fraction); higher = more cells survive
[1] = compound: C[As](C)SC[C@H](NC(=O)CC[C@H](N)C(=O)O)C(=O)NCC(=O)O [Darinaparsin] + Cc1cc(Nc2cc(N3CCN(C)CC3)nc(Sc3ccc(NC(=O)C4CC4)cc3)n2)n[nH]1 [Tozasertib] (partner 0.1 µM)
How it was run: (§1)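 Medians of duplicate plates are given as relative viability. That measure is the nuclei count in treated wells divided by the count in vehicle wells. Counts were taken on 4× images of lung cancer cell lines in 1536-well plates, 5 days after pin-tool dosing the day after seeding with one drug alone or a fixed anchor-drug dose plus five library-drug doses (not always all listed) in √10 steps.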

Darinaparsin + Foretinib = compound: C[As](C)SC[C@H](NC(=O)CC[C@H](N)C(=O)O)C(=O)NCC(=O)O [Darinaparsin] + COc1cc2c(Oc3ccc(NC(=O)C4(C(=O)Nc5ccc(F)cc5)CC4)cc3F)ccnc2cc1OCCCN1CCOCC1 [Foretinib] (partner 0.25 µM)
How it was run: as §1

[2] = compound: C[As](C)SC[C@H](NC(=O)CC[C@H](N)C(=O)O)C(=O)NCC(=O)O [Darinaparsin] + C[C@@H](Oc1cc(-c2cnn(C3CCNCC3)c2)cnc1N)c1c(Cl)ccc(F)c1Cl [Crizotinib] (partner 1 µM)
How it was run: as §1

Darinaparsin + OSI-027 = compound: C[As](C)SC[C@H](NC(=O)CC[C@H](N)C(=O)O)C(=O)NCC(=O)O [Darinaparsin] + COc1cccc2cc(-c3nc([C@H]4CC[C@H](C(=O)O)CC4)n4ncnc(N)c34)[nH]c12 [OSI-027] (partner 0.5 µM)
How it was run: as §1

Darinaparsin + Alpelisib = compound: C[As](C)SC[C@H](NC(=O)CC[C@H](N)C(=O)O)C(=O)NCC(=O)O [Darinaparsin] + Cc1nc(NC(=O)N2CCC[C@H]2C(N)=O)sc1-c1ccnc(C(C)(C)C(F)(F)F)c1 [Alpelisib] (partner 2 µM)
How it was run: as §1

Cell Line	relative viability ([1]; first compound 0.08 µM)	relative viability ([1]; first compound 0.8 µM)	relative viability ([1]; first compound 2.53 µM)	relative viability ([1]; first compound 8 µM)	relative viability (Darinaparsin + Foretinib; first compound 0.08 µM)	relative viability (Darinaparsin + Foretinib; first compound 0.8 µM)	relative viability (Darinaparsin + Foretinib; first compound 2.53 µM)	relative viability (Darinaparsin + Foretinib; first compound 8 µM)	relative viability ([2]; first compound 0.08 µM)	relative viability ([2]; first compound 0.8 µM)	relative viability ([2]; first compound 2.53 µM)	relative viability ([2]; first compound 8 µM)	relative viability (Darinaparsin + OSI-027; first compound 0.08 µM)	relative viability (Darinaparsin + OSI-027; first compound 0.8 µM)	relative viability (Darinaparsin + OSI-027; first compound 2.53 µM)	relative viability (Darinaparsin + OSI-027; first compound 8 µM)	relative viability (Darinaparsin + Alpelisib; first compound 0.08 µM)	relative viability (Darinaparsin + Alpelisib; first compound 0.8 µM)	relative viability (Darinaparsin + Alpelisib; first compound 2.53 µM)	relative viability (Darinaparsin + Alpelisib; first compound 8 µM)
SK-LU-1	0.402	0.278	0.294	0.316	1.13	0.76	0.65	0.958	1.15	1.06	0.669	0.946	0.363	0.299	0.257	0.351	1.11	0.956	0.797	1.06
NCI-H2085	0.953	0.814	0.78	0.892	1.12	0.975	0.863	0.902	0.936	0.858	0.768	0.9	0.778	0.806	0.762	0.673	1.07	1	1.03	0.957
NCI-H1666	0.623	0.612	0.745	0.579	0.995	0.888	1.19	1.06	0.904	0.927	1.02	1.14	0.926	0.827	0.847	0.982	1.11	0.967	1.14	1.06
NCI-H647	0.0828	0.282	0.232	0.385	1.53	1.31	1.01	1.45	1.66	1.1	1.16	1.6	0.625	0.59	0.545	1.08	1.57	1.16	0.827	1.31
A-427	0.2	0.215	0.177	0.193	1.35	1.15	0.989	1.32	1.01	0.902	0.777	1.1	0.424	0.445	0.466	0.582	1.11	1.05	1.08	1.12
NCI-H1915	0.502	0.479	0.427	0.435	1.2	1.08	0.958	1.25	1.06	0.839	0.795	1.13	0.741	0.649	0.644	0.749	1.12	1.06	1.03	1.11
NCI-H1355	0.571	0.568	0.44	0.499	1.09	0.91	0.854	0.768	1.13	1.06	0.852	1.18	0.432	0.352	0.34	0.372	0.955	0.8	0.785	0.92
HCC-15	0.525	0.347	0.298	0.364	1.31	1	0.98	1.26	0.931	0.743	0.784	1.06	0.737	0.59	0.694	0.707	0.914	0.95	0.867	1.08
HCC-78	0.449	0.461	0.386	0.491	0.555	0.492	0.53	0.483	0.36	0.316	0.332	0.348	0.375	0.394	0.379	0.372	0.363	0.301	0.358	0.259
NCI-H23	0.372	0.333	0.348	0.754	0.986	0.843	0.891	1.06	0.753	0.428	0.412	0.515	0.668	0.579	0.669	0.606	0.926	0.582	0.711	0.681
NCI-H838	0.275	0.24	0.256	0.304	1.19	1.03	0.856	1.23	0.996	0.803	0.776	0.976	0.401	0.34	0.458	0.428	1.18	1	0.846	1.14
COR-L23	0.208	0.225	0.24	0.196	1.21	1.04	0.934	1.34	0.818	0.648	0.601	0.661	0.975	0.645	0.785	0.838	1.02	0.707	0.585	0.893
LCLC-103H	0.491	0.517	0.507	0.441	0.858	0.745	0.626	0.858	1.12	1.04	0.979	1.03	0.481	0.465	0.414	0.531	0.945	0.982	0.915	1.11
ABC-1	0.169	0.205	0.2	0.192	1.36	0.995	1.18	1.08	1.21	1.16	0.875	1.29	0.489	0.424	0.453	0.444	0.966	1.16	1.07	1.28
SW 1573	0.145	0.2	0.197	0.14	1.05	1.01	0.867	1.33	1.13	0.711	0.668	0.851	0.736	0.627	0.611	0.87	0.744	0.729	0.472	0.832
HARA	0.153	0.103	0.125	0.0804	0.944	0.927	0.712	0.938	1.46	1.05	0.783	1.27	0.68	0.502	0.54	0.572	0.868	0.682	0.756	1.19

Cell Line	relative viability ([1]; first compound 0.08 µM)	relative viability ([1]; first compound 0.8 µM)	relative viability ([1]; first compound 2.53 µM)	relative viability ([1]; first compound 8 µM)	relative viability (Darinaparsin + Foretinib; first compound 0.08 µM)	relative viability (Darinaparsin + Foretinib; first compound 0.8 µM)	relative viability (Darinaparsin + Foretinib; first compound 2.53 µM)	relative viability (Darinaparsin + Foretinib; first compound 8 µM)	relative viability ([2]; first compound 0.08 µM)	relative viability ([2]; first compound 0.8 µM)	relative viability ([2]; first compound 2.53 µM)	relative viability ([2]; first compound 8 µM)	relative viability (Darinaparsin + OSI-027; first compound 0.08 µM)	relative viability (Darinaparsin + OSI-027; first compound 0.8 µM)	relative viability (Darinaparsin + OSI-027; first compound 2.53 µM)	relative viability (Darinaparsin + OSI-027; first compound 8 µM)	relative viability (Darinaparsin + Alpelisib; first compound 0.08 µM)	relative viability (Darinaparsin + Alpelisib; first compound 0.8 µM)	relative viability (Darinaparsin + Alpelisib; first compound 2.53 µM)	relative viability (Darinaparsin + Alpelisib; first compound 8 µM)
NCI-H1755	0.576	0.471	0.483	0.616	0.994	0.931	0.868	1.08	1.08	0.827	0.807	1.12	0.725	0.691	0.686	0.841	1.26	0.896	0.892	1.28
NCI-H460	0.735	0.438	0.326	0.792	1.04	1.04	1.03	1.33	–	0.91	0.607	1.56	0.98	0.753	0.537	1.19	0.566	0.549	0.417	0.821
NCI-H2170	0.667	0.793	0.617	1.03	1.01	0.965	0.992	1.19	1.61	1.35	0.953	1.51	0.734	0.725	0.697	0.727	0.927	0.759	0.629	1.13
NCI-H3122	0.446	0.41	0.377	0.417	1.03	0.964	0.94	0.789	0.336	0.258	0.251	0.289	1.21	1	0.95	1.14	0.9	0.796	0.735	1.01
COR-L 105	0.316	0.369	0.315	0.32	1.12	1.2	1.1	1.04	0.745	0.687	–	0.866	0.625	0.704	0.486	0.559	1.34	1.21	–	1.08
NCI-H2087	0.243	0.246	0.254	0.22	1.44	1.09	1.03	1.37	1.04	0.911	0.889	1.11	0.604	0.67	0.527	0.705	1.15	0.988	1.13	1.18
HCC-366	0.147	0.0892	0.149	0.168	0.905	0.91	0.965	1.14	1.26	0.523	0.265	0.828	1.23	1.1	0.955	1.62	0.753	0.424	0.329	0.706
NCI-H2347	0.587	–	0.555	0.469	0.859	1.01	0.994	1.05	0.709	0.703	0.747	0.696	0.398	–	0.424	0.407	1.21	1.09	1.04	1.09
201T	1.04	0.914	0.994	1.12	1.2	1.15	1.19	1.03	1.09	1.02	1	1.09	0.963	0.701	–	0.93	1.12	1.03	0.997	0.82
NCI-H358	0.1	0.102	0.124	0.101	0.758	0.693	0.648	0.799	0.566	0.499	0.576	0.673	0.988	0.76	0.846	0.793	0.922	0.87	0.817	0.994
NCI-H1993	0.598	0.585	0.549	0.557	0.738	0.761	0.788	0.921	0.979	0.834	0.82	0.774	0.542	0.527	0.493	0.551	0.712	0.681	0.688	0.678
NCI-H2009	0.927	0.682	0.731	0.884	0.435	1.18	1.15	1.33	1.09	0.991	0.953	1.02	0.61	0.657	0.584	0.587	1.25	1.19	1.06	1.16
EMC-BAC-2	0.251	0.28	0.299	0.277	1.08	0.958	1.01	1.16	0.812	0.772	0.676	0.801	0.364	0.315	0.405	0.409	0.894	0.687	0.709	0.888
NCI-H2023	0.696	0.306	0.357	0.425	0.847	0.78	0.821	0.904	0.745	0.636	0.56	0.754	0.483	0.364	0.33	0.486	0.658	0.601	0.536	0.603
RERF-LC-KJ	0.482	0.483	0.447	0.472	1.03	0.931	0.859	0.961	1.01	0.925	0.791	0.96	0.592	0.574	0.527	0.596	0.865	0.917	0.73	0.873
